Test results as given in patent US8148423B2, “Fluorophore compounds” (Versitech Limited, priority 2008, dated 2012).

Tests used:
[1] = Fluorescence spectra and quantum yield of rhodol fluorophores, rhodamine 6G as reference; format: physicochemical; conditions: 50 mM aqueous phosphate buffer at pH about 8.0, N.D. = no fluorescence detected; for QY (quantum yield): relative to rhodamine 6G (QY = 0.76 in water)
Procedure: (§1) The photophysical properties of the rhodol fluorophores in Table 1 were measured according to the procedures disclosed herein and are summarized in Table 1. Stock solutions were prepared by accurately weighting and dissolving about 5-10 mg of the rhodol fluorophores in Table 1 in acetonitrile (CH3CN). Absorbance solutions were prepared by further diluting the stock solution with 50 mM of potassium phosphate buffer at pH 8.0. Absorption spectra were recorded on a CARY 50 Bio UV-Visible spectrophotometer (obtainable from Varian Incorporation, Palo Alto, Calif.) under the control of a PC running the manufacturer supplied software package. Spectra were routinely acquired at 25° C., in 1 cm path length quartz cuvettes with a volume of 3.5 mL. Fluorescence spectra were recorded on a Hitachi F-2500 spectrofluorimeter (obtainable from Hitachi, Japan) under the control of a PC running the manufacturer supplied software package. Slit width was 2.5 nm for both the excitation spectrum and the fluorescence spectrum, and the photomultiplier voltage was […]. All spectra were corrected for emission intensity using the manufacturer-supplied photomultiplier curves. The quantum yields of the fluorophores may be estimated by comparison of the integrated area of the corrected emission spectrum of the sample with that of a reference solution, such as a solution of rhodamine 6 G in water (quantum efficiency 0.76). The concentration of the reference was adjusted to match the absorbance of the test sample.

[2] = Absorption spectra of rhodol fluorophores in phosphate buffer; format: physicochemical; conditions: for εmax: 50 mM aqueous phosphate buffer at pH about 8.0; for Abs Max: 50 mM aqueous phosphate buffer at pH about 8.0, 25° C.
Procedure: as §1

| Structure (SMILES) | Em Max [1] | QY (quantum yield) [1] | εmax [2] | Abs Max [2] |
| --- | --- | --- | --- | --- |
| O=C1OC2(c3ccc(O)cc3Oc3cc(N4CCCCC4)ccc32)c2ccccc21 (centres unmarked) [A=H, R1R2=CH2CH2CH2CH2CH2] | 555 nm | 0.03 | 62,500 cm^−1M^−1 | 523 nm |
| O=C1OC2(c3ccc(O)cc3Oc3cc(Nc4ccccc4)ccc32)c2ccccc21 (centres unmarked) [A=H, R1=H, R2=Ph] |  |  | 55,000 cm^−1M^−1 | 513 nm |
| CCCNc1ccc2c(c1)Oc1cc(OCOC)ccc1C21OC(=O)c2ccccc21 (centres unmarked) [A=MOM, R1=H, R2=n-Pr] | 532 nm | 0.35 |  | 494 nm |
| CCN(CC)c1ccc2c(c1)Oc1cc(O)ccc1C21OC(=O)c2ccccc21 (centres unmarked) [A=H, R1=Et, R2=Et] | 549 nm | 0.08 | 47,000 cm^−1M^−1 | 522 nm |
| C=CC(=O)Nc1ccc2c(c1)Oc1cc(O)ccc1C21OC(=O)c2ccccc21 (centres unmarked) [A=H, R1=H, R2=COCHCH2] | 524 nm | 0.19 |  | 462/490 |
| Nc1ccc2c(c1)Oc1cc(O)ccc1C21OC(=O)c2ccccc21 (centres unmarked) [A=H, R1=H, R2=H] | 516 nm | 0.98 | ~70,000 cm^−1M^−1 | 493 nm |
| COCOc1ccc2c(c1)Oc1cc(NC(=O)c3ccccc3)ccc1C21OC(=O)c2ccccc21 (centres unmarked) [A=MOM, R1=H, R2=COPh] |  |  |  | 293 nm |
| O=C1OC2(c3ccc(O)cc3Oc3cc(NCc4ccccc4)ccc32)c2ccccc21 (centres unmarked) [A=H, R1=H, R2=Bn] | 529 nm | 0.95 | 71,000 cm^−1M^−1 | 503 nm |
| CN(C)c1ccc2c(c1)Oc1cc(O)ccc1C21OC(=O)c2ccccc21 (centres unmarked) [A=H, R1=Me, R2=Me] | 544 nm | 0.20 | 64,000 cm^−1M^−1 | 518 nm |
| CCCNc1ccc2c(c1)Oc1cc(O)ccc1C21OC(=O)c2ccccc21 (centres unmarked) [A=H, R1=H, R2=n-Pr] | 531 nm | 0.94 | 61,000 cm^−1M^−1 | 507 nm |
| O=C(Nc1ccc2c(c1)Oc1cc(O)ccc1C21OC(=O)c2ccccc21)c1ccccc1 (centres unmarked) [A=H, R1=H, R2=COPh] | 525 nm | 0.16 |  | 462/490 |
| CCCCN(CCCC)c1ccc2c(c1)Oc1cc(O)ccc1C21OC(=O)c2ccccc21 (centres unmarked) [A=H, R1=n-Bu, R2=n-Bu] | 553 nm | 0.12 | 63,000 cm^−1M^−1 | 525 nm |
| CCCCNc1ccc2c(c1)Oc1cc(O)ccc1C21OC(=O)c2ccccc21 (centres unmarked) [A=H, R1=H, R2=n-Bu] | 533 nm | 0.90 | 60,000 cm^−1M^−1 | 508 nm |
| COc1ccc2c(c1)Oc1cc(N)ccc1C21OC(=O)c2ccccc21 (centres unmarked) [A=Me, R1=H, R2=H] | 516 nm | 0.85 |  | 477 nm |
